In brackets after ≈: the same amount, converted by molar mass. Read-outs that look alike come from different tables or passages of the source.
Tests used:
Assay type in all cases: cell-based
Serratia marcens K77-1 = test: In vitro MIC, agar dilution, Serratia marcens K77-1; conditions: read-out: Minimal Inhibitory Concentration
Protocol: (§1) The in vitro activity of representative compounds of the present invention are given in the following Table I in terms of minimal inhibitory concentration. The test used was the standard agar dilution test using a Steers multiple inocula replicator and incubating at 35° C. for 18 hours in conventional nutrient agar.

[1] = system: Pseudomonas aeruginosa PD05141; test: In vitro MIC, agar dilution, Pseudomonas aeruginosa PD05141; conditions: read-out: Minimal Inhibitory Concentration
Protocol: as §1

[2] = system: Enterobacter cloacae MA75-1; test: In vitro MIC, agar dilution, Enterobacter cloacae MA75-1; conditions: read-out: Minimal Inhibitory Concentration
Protocol: as §1

[3] = system: Escherichia coli ESS22-31; test: In vitro MIC, agar dilution, Escherichia coli ESS22-31; conditions: read-out: Minimal Inhibitory Concentration
Protocol: as §1

[4] = system: Enterobacter cloacae OSU75-2; test: In vitro MIC, agar dilution, Enterobacter cloacae OSU75-2; conditions: read-out: Minimal Inhibitory Concentration
Protocol: as §1

Enterococcus SM77-15 = test: In vitro MIC, agar dilution, Enterococcus SM77-15; conditions: read-out: Minimal Inhibitory Concentration
Protocol: as §1

Escherichia coli 311 = test: In vitro MIC, agar dilution, Escherichia coli 311; conditions: 35° C., 18 hours, nutrient agar, read-out: Minimal Inhibitory Concentration
Protocol: as §1

Proteus rettgeri N76-1 = test: In vitro MIC, agar dilution, Proteus rettgeri N76-1; conditions: Providencia rettgeri, read-out: Minimal Inhibitory Concentration
Protocol: as §1

[5] = system: Klebsiella pneumoniae W75-2; test: In vitro MIC, agar dilution, Klebsiella pneumoniae W75-2; conditions: read-out: Minimal Inhibitory Concentration
Protocol: as §1

[6] = system: Staphylococcus aureus Q74-1; test: In vitro MIC, agar dilution, Staphylococcus aureus Q74-1; conditions: read-out: Minimal Inhibitory Concentration
Protocol: as §1

[7] = system: Pseudomonas aeruginosa 12-4-4; test: In vitro MIC, agar dilution, Pseudomonas aeruginosa 12-4-4; conditions: read-out: Minimal Inhibitory Concentration
Protocol: as §1

Klebsiella pneumoniae AD = test: In vitro MIC, agar dilution, Klebsiella pneumoniae AD; conditions: read-out: Minimal Inhibitory Concentration
Protocol: as §1

[8] = system: Klebsiella pneumoniae MA75-1; test: In vitro MIC, agar dilution, Klebsiella pneumoniae MA75-1; conditions: read-out: Minimal Inhibitory Concentration
Protocol: as §1

[9] = system: Enterobacter aerogenes UR76-3; test: In vitro MIC, agar dilution, Enterobacter aerogenes UR76-3; conditions: Klebsiella aerogenes, read-out: Minimal Inhibitory Concentration
Protocol: as §1

Escherichia coli W75-1 = test: In vitro MIC, agar dilution, Escherichia coli W75-1; conditions: W751, 35° C., 18 hours, nutrient agar, read-out: Minimal Inhibitory Concentration
Protocol: as §1

Serratia marcens QHC77-2 = test: In vitro MIC, agar dilution, Serratia marcens QHC77-2; conditions: read-out: Minimal Inhibitory Concentration
Protocol: as §1

Proteus morganii K72 = test: In vitro MIC, agar dilution, Proteus morganii K72; conditions: Morganella morganii, read-out: Minimal Inhibitory Concentration
Protocol: as §1

[10] = system: Staphylococcus aureus Q74-6; test: In vitro MIC, agar dilution, Staphylococcus aureus Q74-6; conditions: read-out: Minimal Inhibitory Concentration
Protocol: as §1

[11] = system: Pseudomonas aeruginosa G236; test: In vitro MIC, agar dilution, Pseudomonas aeruginosa G236; conditions: read-out: Minimal Inhibitory Concentration
Protocol: as §1

Escherichia coli OSU75-1 = test: In vitro MIC, agar dilution, Escherichia coli OSU75-1; conditions: OSU751, 35° C., 18 hours, nutrient agar, read-out: Minimal Inhibitory Concentration
Protocol: as §1

[12] = system: Klebsiella pneumoniae W75-4; test: In vitro MIC, agar dilution, Klebsiella pneumoniae W75-4; conditions: read-out: Minimal Inhibitory Concentration
Protocol: as §1

[13] = system: Klebsiella pneumoniae UR76-1; test: In vitro MIC, agar dilution, Klebsiella pneumoniae UR76-1; conditions: read-out: Minimal Inhibitory Concentration
Protocol: as §1

[14] = system: Pseudomonas aeruginosa UCS 76-13; test: In vitro MIC, agar dilution, Pseudomonas aeruginosa UCS 76-13; conditions: read-out: Minimal Inhibitory Concentration
Protocol: as §1

Serratia K101 = test: In vitro MIC, agar dilution, Serratia K101; conditions: read-out: Minimal Inhibitory Concentration
Protocol: as §1

Proteus vulgaris N74-1 = test: In vitro MIC, agar dilution, Proteus vulgaris N74-1; conditions: N741, 35° C., 18 hours, nutrient agar, read-out: Minimal Inhibitory Concentration
Protocol: as §1

For `CC(=O)OCC1=C(C(=O)O)N2C(=O)[C@@H](NC(=O)Cc3cccs3)[C@H]2SC1` [Compound X, Cephalothin, reference compound], the MIC (Serratia marcens K77-1; Serratia, K771, 18 h) was over 128 µg/mL, the MIC ([1]; Pseudomonas aeruginosa, PD05141, 18 h) was over 128 µg/mL and the MIC ([2]; Enterobacter cloacae, MA751, 18 h) was over 128 µg/mL. It also gave an MIC ([3]; Escherichia coli, ESS2231, 18 h) of at most 0.06 µg/mL, an MIC ([4]; Enterobacter cloacae, OSU752, 18 h) of over 128 µg/mL and an MIC (Enterococcus SM77-15; Enterococcus, SM7715, 18 h) of 32 µg/mL (≈ 80.7 µM). For the same compound, the MIC (Escherichia coli 311) was 4 µg/mL (≈ 10.1 µM), the MIC (Proteus rettgeri N76-1; N761, 18 h) was over 128 µg/mL and the MIC ([5]; Klebsiella pneumoniae, W752, 18 h) was 2 µg/mL (≈ 5.04 µM). It also gave an MIC ([6]; Staphylococcus aureus, Q741, 18 h) of at most 0.06 µg/mL, an MIC ([7]; Pseudomonas aeruginosa, 1244, 18 h) of over 128 µg/mL and an MIC (Klebsiella pneumoniae AD; Klebsiella pneumoniae, 18 h) of 2 µg/mL (≈ 5.04 µM). The MIC ([8]; Klebsiella pneumoniae, MA751, 18 h) was 1 µg/mL (≈ 2.52 µM), the MIC ([9]; UR763, 18 h) was 2 µg/mL (≈ 5.04 µM) and the MIC (Escherichia coli W75-1) was 8 µg/mL (≈ 20.2 µM). The MIC (Serratia marcens QHC77-2; Serratia, QHC772, 18 h) was over 128 µg/mL, the MIC (Proteus morganii K72; K72, 18 h) was over 128 µg/mL and the MIC ([10]; Staphylococcus aureus, Q746, 18 h) was 0.12 µg/mL (≈ 0.303 µM). It also gave an MIC ([11]; Pseudomonas aeruginosa, G236, 18 h) of over 128 µg/mL, an MIC (Escherichia coli OSU75-1) of 8 µg/mL (≈ 20.2 µM) and an MIC ([12]; Klebsiella pneumoniae, W754, 18 h) of 8 µg/mL (≈ 20.2 µM). It also gave an MIC ([13]; Klebsiella pneumoniae, UR761, 18 h) of 8 µg/mL (≈ 20.2 µM), an MIC ([14]; Pseudomonas aeruginosa, UCS7613, 18 h) of over 128 µg/mL and an MIC (Serratia K101; Serratia, K101, 18 h) of over 128 µg/mL.
`CCN1CCN(C(=O)NC(C(=O)NC2C(=O)N3C(C(=O)O)=C(CSc4nnc(-n5cccn5)n4N)CS[C@H]23)c2ccc(O)cc2)C(=O)C1=O` (stereo partly shown) [Compound VII, 7-[2-(4-Ethyl-2,3-dioxo-1-piperazinecarboxamido)-2-(p-hydroxyphenyl)acetamido]-3-[4-amino-5-(1-pyrazolyl)-1,2,4-triazol-3-ylthiomethyl]-3-cephem-4-carboxylic acid] gave an MIC (Serratia marcens K77-1; K771, Serratia marcens K77-1, agar dilution, 35° C., 18 hours, nutrient agar) of 64 µg/mL (≈ 89.9 µM), an MIC ([1]; Pseudomonas aeruginosa PD05141, agar dilution, 35° C., 18 hours, nutrient agar) of 64 µg/mL (≈ 89.9 µM) and an MIC ([2]; MA751, Enterobacter cloacae MA75-1, agar dilution, 35° C., 18 hours, nutrient agar) of over 128 µg/mL. For the same compound, the MIC ([3]; ESS2231, Escherichia coli ESS22-31, agar dilution, 35° C., 18 hours, nutrient agar) was at most 0.12 µg/mL, the MIC ([4]; OSU752, Enterobacter cloacae OSU75-2, agar dilution, 35° C., 18 hours, nutrient agar) was 16 µg/mL (≈ 22.5 µM) and the MIC (Enterococcus SM77-15; SM7715, Enterococcus SM77-15, agar dilution, 35° C., 18 hours, nutrient agar) was 128 µg/mL (≈ 180 µM). It also gave an MIC (Escherichia coli 311) of 0.5 µg/mL (≈ 0.703 µM), an MIC (Proteus rettgeri N76-1; N761, Proteus rettgeri N76-1, agar dilution, 35° C., 18 hours, nutrient agar) of 8 µg/mL (≈ 11.2 µM) and an MIC ([5]; W752, Klebsiella pneumoniae W75-2, agar dilution, 35° C., 18 hours, nutrient agar) of 2 µg/mL (≈ 2.81 µM). The MIC ([6]; Q741, Staphylococcus aureus Q74-1, agar dilution, 35° C., 18 hours, nutrient agar) was 2 µg/mL (≈ 2.81 µM), the MIC ([7]; 1244, Pseudomonas aeruginosa 12-4-4, agar dilution, 35° C., 18 hours, nutrient agar) was 16 µg/mL (≈ 22.5 µM) and the MIC (Klebsiella pneumoniae AD; Klebsiella pneumoniae AD, agar dilution, 35° C., 18 hours, nutrient agar) was 1 µg/mL (≈ 1.41 µM). It also gave an MIC ([8]; MA751, Klebsiella pneumoniae MA75-1, agar dilution, 35° C., 18 hours, nutrient agar) of 1 µg/mL (≈ 1.41 µM), an MIC ([9]; UR763, Enterobacter aerogenes UR76-3, agar dilution, 35° C., 18 hours, nutrient agar) of 0.25 µg/mL (≈ 0.351 µM) and an MIC (Proteus vulgaris N74-1) of 32 µg/mL (≈ 45 µM). It also gave an MIC (Escherichia coli W75-1) of 1 µg/mL (≈ 1.41 µM), an MIC (Serratia marcens QHC77-2; QHC772, Serratia marcens QHC77-2, agar dilution, 35° C., 18 hours, nutrient agar) of 128 µg/mL (≈ 180 µM) and an MIC (Proteus morganii K72; Proteus morganii K72, agar dilution, 35° C., 18 hours, nutrient agar) of 32 µg/mL (≈ 45 µM). The MIC ([10]; Q746, Staphylococcus aureus Q74-6, agar dilution, 35° C., 18 hours, nutrient agar) was 4 µg/mL (≈ 5.62 µM), the MIC ([11]; Pseudomonas aeruginosa G236, agar dilution, 35° C., 18 hours, nutrient agar) was 32 µg/mL (≈ 45 µM) and the MIC (Escherichia coli OSU75-1) was 1 µg/mL (≈ 1.41 µM). The MIC ([12]; W754, Klebsiella pneumoniae W75-4, agar dilution, 35° C., 18 hours, nutrient agar) was 32 µg/mL (≈ 45 µM), the MIC ([13]; UR761, Klebsiella pneumoniae UR76-1, agar dilution, 35° C., 18 hours, nutrient agar) was 16 µg/mL (≈ 22.5 µM) and the MIC ([14]; UCS7613, Pseudomonas aeruginosa UCS 76-13, agar dilution, 35° C., 18 hours, nutrient agar) was 64 µg/mL (≈ 89.9 µM). The MIC (Serratia K101; Serratia K101, agar dilution, 35° C., 18 hours, nutrient agar) was 32 µg/mL (≈ 45 µM).
